{"source": "PubChem BioAssay (NCI)", "assay_in_all_cases": "inhibition of tumour cell growth, NCI panel, 384-well format", "key": {"COLO 205 colon": {"system": "COLO 205 colon"}, "HOP-92 NSCLC": {"system": "HOP-92 NSCLC"}, "IGROV1 ovarian": {"system": "IGROV1 ovarian"}, "LOX IMVI melanoma": {"system": "LOX IMVI melanoma"}, "M14 melanoma": {"system": "M14 melanoma"}, "MALME-3M melanoma": {"system": "MALME-3M melanoma"}, "MDA-MB-468 breast": {"system": "MDA-MB-468 breast"}, "NCI-H460 NSCLC": {"system": "NCI-H460 NSCLC"}, "NCI-H522 lung": {"system": "NCI-H522 lung"}, "OVCAR-5 ovarian": {"system": "OVCAR-5 ovarian"}, "T-47D breast": {"system": "T-47D breast"}, "TK-10 renal": {"system": "TK-10 renal"}, "UO-31 renal": {"system": "UO-31 renal"}}, "note": "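GI50 marks 50% less growth. TGI: total growth inhibition.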", "data": [{"smiles": "COc1ccc([C@@H](O)c2cc(-c3ncnc4cc(N5CCOCC5)ccc34)c(F)cc2Cl)nn1", "values": [{"measurement": "GI50", "setting": "COLO 205 colon", "result": 3.52, "unit": "µM"}, {"measurement": "TGI", "setting": "COLO 205 colon", "result": 11.1, "unit": "µM"}, {"measurement": "GI50", "setting": "HOP-92 NSCLC", "result": 0.583, "unit": "µM"}, {"measurement": "TGI", "setting": "HOP-92 NSCLC", "result": 5.19, "unit": "µM"}, {"measurement": "GI50", "setting": "IGROV1 ovarian", "result": 0.682, "unit": "µM"}, {"measurement": "TGI", "setting": "IGROV1 ovarian", "result": 2.45, "unit": "µM"}, {"measurement": "GI50", "setting": "LOX IMVI melanoma", "result": 1.81, "unit": "µM"}, {"measurement": "TGI", "setting": "LOX IMVI melanoma", "result": 4.44, "unit": "µM"}, {"measurement": "GI50", "setting": "M14 melanoma", "result": 4.23, "unit": "µM"}, {"measurement": "TGI", "setting": "M14 melanoma", "result": 16.9, "unit": "µM"}, {"measurement": "GI50", "setting": "MALME-3M melanoma", "result": 1.66, "unit": "µM"}, {"measurement": "TGI", "setting": "MALME-3M melanoma", "result": 10.7, "unit": "µM"}, {"measurement": "GI50", "setting": "MDA-MB-468 breast", "result": 1.03, "unit": "µM"}, {"measurement": "TGI", "setting": "MDA-MB-468 breast", "result": 4.31, "unit": "µM"}, {"measurement": "GI50", "setting": "NCI-H460 NSCLC", "result": 2.19, "unit": "µM"}, {"measurement": "TGI", "setting": "NCI-H460 NSCLC", "result": 13.1, "unit": "µM"}, {"measurement": "GI50", "setting": "NCI-H522 lung", "result": 1.29, "unit": "µM"}, {"measurement": "TGI", "setting": "NCI-H522 lung", "result": 8.26, "unit": "µM"}, {"measurement": "GI50", "setting": "OVCAR-5 ovarian", "result": 3.47, "unit": "µM"}, {"measurement": "TGI", "setting": "OVCAR-5 ovarian", "result": 21, "unit": "µM"}, {"measurement": "GI50", "setting": "T-47D breast", "result": 0.531, "unit": "µM"}, {"measurement": "TGI", "setting": "T-47D breast", "result": 2.61, "unit": "µM"}, {"measurement": "GI50", "setting": "TK-10 renal", "result": 2.79, "unit": "µM"}, {"measurement": "TGI", "setting": "TK-10 renal", "result": 14.6, "unit": "µM"}, {"measurement": "GI50", "setting": "UO-31 renal", "result": 1.95, "unit": "µM"}, {"measurement": "TGI", "setting": "UO-31 renal", "result": 11.6, "unit": "µM"}]}]}
